Read-outs that look alike come from different tables or passages of the source. Ends that are not written are not given here.
Experiments:
MBP-NS34a [1] = biological target: T1, MBP-NS34a (Hepatitis C virus genotype 1b, UniProt P26662); assay: Phage ELISA: inhibition of binding of phage peptide and MBP-NS34a by library compounds; design: species or system human hepatitis C virus; settings: for effect on binding of various phages to NS34a (figure legend): FIG. 3: clones other than phage peptide K13, FIG. 4: any clone; for inhibition of the binding of the MBP-NS34a and the phage peptide: compound serially diluted, OD 405 nm (FIG. 3, FIG. 4)
T1 construct: (including 979th to 1710th amino acids); made in house; host or cells: Escherichia coli XL2-Blue
T1 sequence (P26662 979-1710): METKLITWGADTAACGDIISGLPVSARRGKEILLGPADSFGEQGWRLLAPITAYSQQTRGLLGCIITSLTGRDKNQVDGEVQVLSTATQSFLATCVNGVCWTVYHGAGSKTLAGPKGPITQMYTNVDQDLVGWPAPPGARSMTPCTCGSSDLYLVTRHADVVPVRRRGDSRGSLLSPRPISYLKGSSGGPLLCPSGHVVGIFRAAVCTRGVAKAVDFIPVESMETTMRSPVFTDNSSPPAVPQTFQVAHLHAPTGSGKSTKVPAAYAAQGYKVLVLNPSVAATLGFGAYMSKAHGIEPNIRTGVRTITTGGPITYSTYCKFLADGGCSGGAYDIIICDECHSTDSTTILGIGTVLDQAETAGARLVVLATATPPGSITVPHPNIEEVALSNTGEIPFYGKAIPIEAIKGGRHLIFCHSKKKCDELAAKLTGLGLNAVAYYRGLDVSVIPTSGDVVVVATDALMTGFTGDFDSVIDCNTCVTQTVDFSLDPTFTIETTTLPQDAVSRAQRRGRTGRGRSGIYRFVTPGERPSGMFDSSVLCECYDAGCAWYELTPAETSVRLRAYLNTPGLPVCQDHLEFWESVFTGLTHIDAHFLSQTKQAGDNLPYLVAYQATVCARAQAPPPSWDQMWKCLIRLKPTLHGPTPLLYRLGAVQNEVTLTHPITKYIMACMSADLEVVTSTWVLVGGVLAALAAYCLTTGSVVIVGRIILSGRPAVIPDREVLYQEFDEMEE
Protocol: A binding inhibitor was screened by using the above phage ELISA system. As peptides used for screening, the phage peptides whose protease inhibitory activity was confirmed by using the synthetic peptides were prepared in an amount required for screening according to the method of Example 2 <3>. Each well of a 96-well microtiter plate was coated by using 50 μl of the MBP-NS34a protein solution prepared at 10 μg/ml. The plate was blocked by using 100 μl of 0.5% BSA solution prepared with 10 mM NaHCO3 and rinsed once with 200 μl of TBS buffer for each well. A mixed solution of a compound in a chemical library (synthesized in our company) diluted to an appropriate concentration and each phage prepared as described above was prepared, and the mixture was added to each well coated with the MBP-NS34a protein in an amount of 100 μl and incubated overnight at 4° C. Each well was washed with 200 μl of TBS buffer four times. Then, 50 μl of horseradish peroxidase (HRP)-conjugated sheep anti-M13 phage diluted 2000 times with 5% skim milk was introduced into each well and incubated at room temperature for 1 hour.
Each well was washed with 200 μl of TBS containing 0.5% Tween-20, five times. Then, 100 μl of ABTS solution was added thereto and further incubated at room temperature. The optical density at 405 nm was measured by using a 96-well plate reader (BIO-RAD). There was selected Compound HCP1271 (Compound 5 described in Japanese Patent Laid-Open (KOKAI) No. 2000-7645), in the presence of which the optical density by binding of the MBP-NS34a and the phage peptide was lower than the optical density observed in the absence of the compound. Further, this inhibitory compound was serially diluted and its influence on the binding of 5 kinds of other phage peptides, which inhibited the NS3 protease activity, was similarly determined by the phage ELISA method. […] Further, since a compound HCP1231 similar to HCP1271, was retrieved by the search of the chemical library, its NS3 protease activity inhibitory ability and influence on the binding of the phage peptide and the NS3 protease were examined. […] That is, it was shown that the compound obtained from screening of the inhibitor for binding of the phage peptide and the protease protein could inhibit the protease activity very well.

NS3 protease (MBP-NS34a) = biological target: T2, NS3 protease (MBP-NS34a) (Hepatitis C virus genotype 1b, UniProt P26662); assay: NS3 protease inhibitory activity test using substrate cleavage reaction as index; assay type: biochemical, human hepatitis C virus
T2 construct: (including 979th to 1710th amino acids); made in house; host or cells: Escherichia coli XL2-Blue
T2 sequence (P26662 979-1710): as above
Protocol: An NS3 protease cleavage sequence between NS5a and NS5b in the HCV polypeptide was synthesized. The protease inhibitory ability of each of the synthetic peptides was examined according to the method of Kakiuchi et al., in which a synthetic substrate having an amino terminus labeled with a dansyl group was reacted in the presence of a protease and a cleavage degree is measured by reverse phase HPLC (Biochem. Diophys. Res. Commun., 210, 1059, 1995). 1 μg of the purified MBP-NS34a and a reaction mixture (50 mM Tris-HCl (pH 7.5), 30 mM NaCl, 5 MM MgCl2 and 10 mM DTT) containing an evaluation sample prepared at an appropriate concentration were incubated at 25° C. for 15 minutes. To the solution, the synthesized substrate was added at a final concentration of 50 μM, and the mixture was allowed to react at 37° C. for 1 to 3 hours. Subsequently, the enzymatic reaction was stopped by adding a reaction-stopping solution (20% acetonitrile, 0.1% TFA) in a volume 9 times as much as the reaction volume. Then, the cleavaged peak of the synthesized substrate was detected (excited at 340 nm and measured at 510 nm) by a reverse phase column (YMC-AM-302) to calculate the cleavage rate when the inhibitor was added. Further, a value obtained by dividing this cleavage rate when the inhibitor was added by the cleavage rate when no inhibitor was added, was subtracted from 1 and then multiplied by 100. The obtained value was used as the inhibition rate (%) of the evaluated drug. In the above method, the peptide concentration inhibiting 50% of the protease activity (IC50) was calculated (Table 2).

MBP-NS34a [2] = biological target: T1, MBP-NS34a; assay: Phage ELISA: inhibition of binding of phage peptide and MBP-NS34a by NS4a peptide 4A18-40; design: species or system human hepatitis C virus; settings: 4A18-40 peptide in 10-fold and 20-fold molar excess (FIG. 2)
Description: A possibility that an action site of each phage peptide clone obtained as described above and that of the NS4a peptide derived from virus known to be activated by the binding to the NS3 protein were identical or overlapped was examined. A partial peptide of the NS4a peptide composed of the 18th to 40th residues from the amino terminus (referred to as 4A18-40 peptide) is known as a minimal region required to enhance the NS3 protease activity (Tanji et al., J. Virol., 69, 4017-4026, 1995). Accordingly, an influence on the binding of each phage peptide and the MBP-NS34a protein was analyzed by the phage ELISA method using a chemically synthesized 4A18-40 peptide ([…], SEQ ID NO; 19). 10 μg/ml of the MBP-NS34a protein to which the 4A18-40 peptide was added in an amount of 10 or 20 times in excess in a molar ratio was immobilized on each well of a 96-well microtiter plate. The plate was blocked by using 100 μl of 0.5% BSA solution prepared with 10 mM NaHCO3, and rinsed once with 200 μl of TBS buffer. […]
Each well was washed with 200 μl of TBS containing 0.5% Tween 20 five times. […] The optical density at 405 nm was measured by a 96-well plate reader (BIO-RAD). The optical density due to binding of the MBP-NS34a and the phage peptide observed in the presence of the NS4a peptide was measured.

Molecule	effect on binding of various phages to NS34a (figure legend) (MBP-NS34a [1])	inhibition of the binding of the MBP-NS34a and the phage peptide (MBP-NS34a [1])	IC50 (NS3 protease (MBP-NS34a)) [µM]	other results
CCCCCCNC(=O)c1cc(Cl)ccc1NS(=O)(=O)c1ccc(Cl)cc1 [HCP1231]	Binding of any clone was not inhibited	scarcely inhibited the binding		NS3 protease activity inhibitory ability (in words) (NS3 protease (MBP-NS34a)): very weak protease activity inhibitory activity
O=C(Nc1ccc(Oc2c(Cl)cc(Cl)cc2Cl)cc1)c1cc(Cl)ccc1NS(=O)(=O)c1ccc2ccccc2c1 [HCP1271]	inhibited in a concentration-dependent manner	concentration-dependently inhibited the binding		IC50 (NS3 protease (MBP-NS34a); method of Example 3 <1>, read-out: NS3 protease activity IC50 value): 2.2 µM
IWHFSFMWI [Clone K1, IWHFSFMWI]			15	
LTTGSVVIVGRIILSGRPAVVPD [4A18-40 peptide]				inhibition of binding of phage clone K13 to the MBP-NS34a protein (MBP-NS34a [2]): increasingly inhibited; inhibition of binding of phage clone K13 to the MBP-NS34a protein (MBP-NS34a [2]; listed as NS4a peptide): inhibited the binding in a concentration-dependent manner
WVFFWLSRP [Clone J95, WVFFWLSRP]			15	

— patent US20050266498A1, “Method for screening biomolecule activity regulator” (priority 1999, published 2005)
